Measurements as given in patent US11926640B2, “Prodrugs of glutamine analogs” (THE JOHNS HOPKINS UNIVERSITY, priority 2015, dated 2024).
Entries after “also recorded” stand apart in the source; their conditions may differ. Counter-ions that a name gives are not always drawn. Blank lines part the entries; values can stand above or below the compound they belong to.

Key:
[1] = in vitro metabolic stability in mouse plasma; settings: for PLASMA STABILITY Mouse: prodrug remaining within the 60 min incubation time; for stability in mouse plasma (in words): 30 min and 60 min
[2] = in vitro metabolic stability in human plasma; settings: for PLASMA STABILITY Human: prodrug remaining within the 60 min incubation time; for stability in human plasma (in words): 30 min and 60 min
[3] = in vitro metabolic stability in monkey plasma; settings: for PLASMA STABILITY Monkey: prodrug remaining within the 60 min incubation time; for stability in monkey plasma (in words): 30 min and 60 min
MC38 colon cancer = experiment: MC38 tumor model; format: in vivo, mice; settings: single agent
[4] = in vitro liver microsomal stability, pig; settings: pig microsomes
[5] = in vitro liver microsomal stability, human; settings: human microsomes
[6] = chemical stability (cyclization to diazo-imine, acidic pH); format: physicochemical
Excerpt: Chemistry. Scheme 9 outlines the synthesis and characterization of the ester based prodrugs 20 and 3 of DON and their subsequent cyclization to novel diazo-imines 9a-b. The pyroglutamate esters 6a-b (D'Andrea, et al., 2008) were FMOC-protected to afford compounds 18 and 1. Formation of the diazoketones 19 and 2 was accomplished using TMS diazomethane in good yield. Rapid deprotection with piperidine afforded the ester based prodrugs 20 and 3. Unexpectedly […] cyclization was observed even under mild conditions (e.g. stirring in chloroform at room temperature) affording the novel diazo-imines 9a and 9b. It is believed that this is the first example of this functional group being described in the chemical literature.

[7] = DON release in mouse plasma after oral administration of prodrugs; format: in vivo; settings: mice, p.o., 30 minutes and 5 hours after dosing, compared to DON
Experimental: Procedure for Pharmacokinetic analysis for DON release from its prodrugs: DON is extracted from samples (50 μL) with 250 μL methanol containing Glutamate-d5 (10 μM ISTD) by vortexing in low retention tubes. Samples are centrifuged at 16,000×g for 5 minutes to precipitate proteins. Supernatants (200 μL) are moved to new tube and dried at 45° C. under vacuum (approximately 1 hour). To each tube, 50 μL of 0.2 M sodium bicarbonate buffer (pH 9.0) and 100 μL dabsyl chloride stock is added. After vortexing, samples are incubated at 60° C. for 15 minutes to derivatize.

[8] = in vitro metabolic stability in pig plasma; settings: 30 min and 60 min
[9] = 5-day i.v. toxicity comparison of DON and 38 in pigs; format: in vivo; settings: at equivalent PBMC exposures
[10] = plasma and CSF pharmacokinetics of DON in swine after i.v. infusion; format: in vivo, Göttingen×Yucutan miniature swine; settings: 60 min post-administration
Experimental: Compound: Compound 47 was dissolved in a sterile saline containing 5% ethanol and 5% Tween 80 on the date of administration.
Swine: Swine studies were conducted under a protocol approved by the Johns Hopkins Animal Care and Use Committee. Adult, female Göttingen×Yucutan miniature swine (Massachusetts General Hospital, MA) were housed in Johns Hopkins University facilities accredited by the Association for Assessment and Accreditation of Laboratory Animal Care International in compliance with the Animal Welfare Act, Animal Welfare Regulations, and the Public Health Service Policy on the Humane Care and Use of Laboratory Animals. Animals were maintained on a 14-h light and 10-h dark schedule, provided ad libitum water and a commercial miniswine diet (Teklad, Madison, WI) with environmental enrichment (fruit/vegetables) twice daily.

[11] = in vitro metabolic stability in dog plasma; format: in vitro ADME; settings: 30 min and 60 min
Experimental: Percentage remaining was calculated in the following manner.

SMILES: CCOC(=O)[C@H](CCC(=O)C=[N+]=[N-])NC(=O)OCc1oc(=O)oc1C [Compound 36, Ethyl 6-diazo-2-((((5-methyl-2-oxo-1,3-dioxol-4-yl)methoxy)carbonyl)amino)-5-oxohexanoate]
PLASMA STABILITY Mouse [1]: 0% | PLASMA STABILITY Human [2]: 0% | PLASMA STABILITY Monkey [3]: 0%

SMILES: CC(=O)N[C@@H](Cc1c[nH]c2ccccc12)C(=O)N[C@@H](CCC(=O)C=[N+]=[N-])C(=O)OC(C)C [Compound 60, Isopropyl 2-(2-acetamido-3-(1H-indol-3-yl)propanamido)-6-diazo-5-oxohexanoate]
antitumor efficacy in MC38 tumor model (in words) (MC38 colon cancer): promoted tumor regression | liver microsomal stability (in words) [4]: moderate-high stability | liver microsomal stability (in words) [5]: moderate-high stability

SMILES: CC(C)OC(=O)C(N)CCC(=O)C=[N+]=[N-] (centres unmarked) [Compound 3, Isopropyl 2-amino-6-diazo-5-oxohexanoate]
chemical stability (in words) [6]: chemical instability; also recorded: unstable

SMILES: Cc1oc(=O)oc1COC(=O)N[C@@H](CCC(=O)C=[N+]=[N-])C(=O)OC(C)C [Compound 13, 1-Methylethyl 6-(1λ^5-diazynylidene)-N-{[(5-methyl-2-oxo-1,3-dioxol-4-yl)methoxy]carbonyl}-5-oxo-L-norleucinate]
PLASMA STABILITY Mouse [1]: 0% | PLASMA STABILITY Human [2]: 0% | PLASMA STABILITY Monkey [3]: 0%

SMILES: CC(C)OC(=O)[C@@H]1CCC(C=[N+]=[N-])=N1 (stereo in doubt) [Compound 9b, Isopropyl 5-(diazomethyl)-3,4-dihydro-2H-pyrrole-2-carboxylate]
chemical stability (in words) [6]: chemically stable even at acidic pH

SMILES: CC(C)OC(=O)C(CCC(=O)C=[N+]=[N-])NP(=O)(NC(CCC(=O)C=[N+]=[N-])C(=O)OC(C)C)Oc1ccccc1 (centres unmarked) [Compound 7, 1-methylethyl 2,6-bis[4-(1λ^5-diazynylidene)-3-oxobutyl]-9-methyl-7-oxo-4-phenoxy-8-oxa-3,5-diaza-4-phosphadecan-1-oate 4-oxide]
stability in pig plasma (in words) [8]: stable | stability in mouse plasma (in words) [1]: unstable | stability in human plasma (in words) [2]: stable | stability in monkey plasma (in words) [3]: stable

SMILES: CC(C)OC(=O)[C@H](CCC(=O)C=[N+]=[N-])NP(=O)(Oc1ccccc1)Oc1ccccc1 [Compound 4, Isopropyl 6-diazo-2-((diphenoxyphosphoryl)amino)-5-oxohexanoate]
stability in pig plasma (in words) [8]: stable | stability in mouse plasma (in words) [1]: unstable | stability in human plasma (in words) [2]: stable | stability in monkey plasma (in words) [3]: stable

SMILES: CC(C)OC(=O)[C@H](CCC(=O)C=[N+]=[N-])NC(=O)[C@@H](N)Cc1c[nH]c2ccccc12 (stereo in doubt) [Compound 38, Isopropyl 2-(2-amino-3-(1H-indol-3-yl)propanamido)-6-diazo-5-oxohexanoate]
DON delivered to GI tissues (in words) [9]: less DON to GI tissues | liver microsomal stability (in words) [4]: moderate-high stability | liver microsomal stability (in words) [5]: moderate-high stability | PLASMA STABILITY Mouse [1]: 0% | PLASMA STABILITY Human [2]: 30% | PLASMA STABILITY Monkey [3]: 10%

SMILES: CC(C)OC(=O)[C@H](CCC(=O)C=[N+]=[N-])NC(=O)OC(OC(=O)C(C)(C)C)c1ccccc1 (some centres unmarked) [Compound 47, Isopropyl 6-diazo-5-oxo-2-(((phenyl(pivaloyloxy)methoxy)carbonyl)amino) hexanoate]
CSF delivery of DON (in words) [10]: substantially higher amounts of DON to the CSF; also recorded: enhanced CSF delivery of DON | CSF:plasma ratio of DON (in words) [10]: increased CSF-to-plasma ratios; also recorded: enhanced CSF:plasma ratio

SMILES: CCOC(=O)[C@@H](N)CCC(=O)C=[N+]=[N-] [Compound 20, Ethyl 2-amino-6-diazo-5-oxohexanoate]
chemical stability (in words) [6]: chemical instability; also recorded: unstable

SMILES: CCOC(=O)[C@@H]1CCC(C=[N+]=[N-])=N1 [Compound 9a, Ethyl 5-(diazomethyl)-3,4-dihydro-2H-pyrrole-2-carboxylate]
chemical stability (in words) [6]: chemically stable even at acidic pH

SMILES: CCOC(=O)[C@H](CCC(=O)C=[N+]=[N-])NC(=O)[C@@H](N)Cc1c[nH]c2ccccc12 [Compound 34, Ethyl 2-(2-amino-3-(1H-indol-3-yl)propanamido)-6-diazo-5-oxohexanoate]
PLASMA STABILITY Mouse [1]: 0% | PLASMA STABILITY Human [2]: 12% | PLASMA STABILITY Monkey [3]: 4%

SMILES: CCOC(=O)[C@H](CCC(=O)C=[N+]=[N-])NC(=O)OC(C)OC(=O)C(C)(C)C (mixture of isomers) [Compound 32, Ethyl 6-diazo-2-(((1-(pivaloyloxy)ethoxy)carbonyl)amino)-5-oxohexanoate]
PLASMA STABILITY Mouse [1]: 0% | PLASMA STABILITY Human [2]: 88% | PLASMA STABILITY Monkey [3]: 75%

More lines, now with the values ahead:

DON release / exposure in mouse plasma upon oral administration (in words) [7]: little DON release
SMILES: C[C@H](N)C(=O)N[C@@H](CCC(=O)C=[N+]=[N-])C(=O)O [Compound 23, 2-(2-Aminopropanamido)-6-diazo-5-oxohexanoic acid]

PLASMA STABILITY Mouse [1]: 0% | PLASMA STABILITY Human [2]: 9% | PLASMA STABILITY Monkey [3]: 0%
SMILES: CC(C)OC(=O)[C@H](CCC(=O)C=[N+]=[N-])NC(=O)OCOC(=O)C(C)(C)C [Compound 42, Isopropyl 6-diazo-5-oxo-2-((((pivaloyloxy)methoxy)carbonyl)amino) hexanoate]

DON release / exposure in mouse plasma upon oral administration (in words) [7]: little DON release
SMILES: CC(OC(=O)N[C@@H](CCC(=O)C=[N+]=[N-])C(=O)O)OC(=O)C(C)C (some centres unmarked) [Compound 29, 6-Diazo-2-(((1-(isobutyryloxy)ethoxy)carbonyl)amino)-5-oxohexanoic acid triethylammonium salt]

DON release / exposure in mouse plasma upon oral administration (in words) [7]: little DON release
SMILES: CC(OC(=O)N[C@@H](CCC(=O)C=[N+]=[N-])C(=O)O)OC(=O)C(C)(C)C (some centres unmarked) [Compound 30, 6-Diazo-2-(((1-(pivaloyloxy)ethoxy)carbonyl)amino)-5-oxohexanoic acid triethylammonium salt]

stability in dog plasma (in words) [11]: unstable | liver microsomal stability (in words) [4]: moderate-high stability | stability in pig plasma (in words) [8]: unstable | liver microsomal stability (in words) [5]: moderate-high stability | stability in mouse plasma (in words) [1]: unstable | PLASMA STABILITY Mouse [1]: 0% | stability in human plasma (in words) [2]: unstable | PLASMA STABILITY Human [2]: 1% | stability in monkey plasma (in words) [3]: unstable | PLASMA STABILITY Monkey [3]: 1%
SMILES: CC(C)C[C@H](N)C(=O)N[C@@H](CCC(=O)C=[N+]=[N-])C(=O)OC(C)C [Compound 9, Isopropyl 2-(2-amino-4-methylpentanamido)-6-diazo-5-oxohexanoate]

DON release / exposure in mouse plasma upon oral administration (in words) [7]: some release
SMILES: CC(C)C[C@H](N)C(=O)N[C@@H](CCC(=O)C=[N+]=[N-])C(=O)O [Compound 26, 2-(2-Amino-4-methylpentanamido)-6-diazo-5-oxohexanoic acid triethylammonium salt]

DON release / exposure in mouse plasma upon oral administration (in words) [7]: below the limit of quantitation
SMILES: C=CCOC(=O)N[C@@H](CCC(=O)C=[N+]=[N-])C(=O)O [LTP 073]
